The text below walks through data of PubChem BioAssay AID248 (DTP/NCI, 2004).

This experiment concerns L1210 leukemia ip in BDF1 mice, survival T/C. The experiment is described as follows: NCI In Vivo Anticancer Drug Screen. Data for tumor model L1210 Leukemia (intraperitoneal) in B6D2F1 (BDF1) mice. Particulars: higher = longer survival. The gist of the method:
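Antitumor effect is assessed in tumor-bearing animals. Survival in the compound arm is compared with a vehicle-dosed control arm and expressed as their quotient.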

Where “and” joins values, the source holds several entries; their conditions need not be identical. Equal entries are not always repeated. Inconclusive results and toxic doses are left out.

As for `OCC1OC(n2cnc3c(=S)nc[nH]c32)C(O)C1O` (centres undefined), the T/C (endpoint: mean survival time, dose: 4.69 mg/kg/injection, schedule: Q01DX009 (ip), vehicle: water) was 103 % of control; the T/C (endpoint: mean survival time, dose: 9.38 mg/kg/injection, schedule: Q01DX009 (ip), vehicle: water) is 109 % of control; the T/C (endpoint: mean survival time, dose: 10.0 mg/kg/injection, schedule: Q01DX009 (ip), vehicle: saline) is 117 % of control and 120 % of control; the T/C (endpoint: mean survival time, dose: 14.02 mg/kg/injection, schedule: Q01DX Z (ip), vehicle: carboxymethylcellulose (CMC)) was 121 % of control; the T/C (endpoint: mean survival time, dose: 17.88 mg/kg/injection, schedule: Q01DX Z (ip), vehicle: carboxymethylcellulose (CMC)) is 119 % of control; the T/C (endpoint: mean survival time, dose: 18.25 mg/kg/injection, schedule: Q01DX Z (ip), vehicle: carboxymethylcellulose (CMC)) is 122 % of control. The T/C (endpoint: mean survival time, dose: 18.75 mg/kg/injection, schedule: Q01DX009 (ip), vehicle: water) was 117 % of control; the T/C (endpoint: mean survival time, dose: 20.0 mg/kg/injection, schedule: Q01DX010 (ip), vehicle: saline) is 111 % of control; the T/C (endpoint: mean survival time, dose: 23.83 mg/kg/injection, schedule: Q01DX Z (ip), vehicle: carboxymethylcellulose (CMC)) is 115 % of control; the T/C (endpoint: mean survival time, dose: 35.75 mg/kg/injection, schedule: Q01DX Z (ip), vehicle: carboxymethylcellulose (CMC)) is 123 % of control; the T/C (endpoint: mean survival time, dose: 36.5 mg/kg/injection, schedule: Q01DX Z (ip), vehicle: carboxymethylcellulose (CMC)) is 123 % of control; the T/C (endpoint: mean survival time, dose: 37.5 mg/kg/injection, schedule: Q01DX009 (ip), vehicle: water) was 112 % of control. The T/C is 100 % of control (endpoint: mean survival time, dose: 37.5 mg/kg/injection, schedule: Q01DX Z (ip), vehicle: carboxymethylcellulose (CMC)); 121 % of control (endpoint: mean survival time, dose: 50.0 mg/kg/injection, schedule: Q01DX009 (ip), vehicle: saline); 151 % of control (endpoint: mean survival time, dose: 75.0 mg/kg/injection, schedule: Q01DX015 (ip), vehicle: carboxymethylcellulose (CMC)); 113 % of control (endpoint: mean survival time, dose: 75.0 mg/kg/injection, schedule: Q01DX Z (ip), vehicle: carboxymethylcellulose (CMC)); 123 % of control (endpoint: mean survival time, dose: 100.0 mg/kg/injection, schedule: Q01DX005 (ip), vehicle: saline); 114 % of control (endpoint: mean survival time, dose: 100.0 mg/kg/injection, schedule: Q01DX009 (ip), vehicle: carboxymethylcellulose (CMC)). The T/C (endpoint: mean survival time, dose: 107.25 mg/kg/injection, schedule: Q01DX Z (ip), vehicle: carboxymethylcellulose (CMC)) was 152 % of control; the T/C (endpoint: mean survival time, dose: 120.0 mg/kg/injection, schedule: Q01DX001 (ip), vehicle: carboxymethylcellulose (CMC)) is 98 % of control; the T/C (endpoint: mean survival time, dose: 125.0 mg/kg/injection, schedule: Q03HX024 (ip), vehicle: saline) is 114 % of control; the T/C (endpoint: mean survival time, dose: 150.0 mg/kg/injection, schedule: Q## X Z (ip), vehicle: carboxymethylcellulose (CMC)) is 107 % of control; the T/C (endpoint: mean survival time, dose: 160.0 mg/kg/injection, schedule: Q01DX010 (ip), vehicle: saline) is 153 % of control and 155 % of control; the T/C (endpoint: mean survival time, dose: 180.0 mg/kg/injection, schedule: Q01DX001 (ip), vehicle: alkali diluted with saline) was 108 % of control. The T/C is, setting by setting: (endpoint: mean survival time, dose: 180.0 mg/kg/injection, schedule: Q01DX001 (ip), vehicle: carboxymethylcellulose (CMC)) 118 % of control; (endpoint: mean survival time, dose: 188.0 mg/kg/injection, schedule: Q03HX024 (ip), vehicle: clinical formulation) 104 % of control; (endpoint: mean survival time, dose: 188.0 mg/kg/injection, schedule: Q03HX024 (ip), vehicle: saline) 115 % of control; (endpoint: mean survival time, dose: 200.0 mg/kg/injection, schedule: Q01DX009 (ip), vehicle: saline) 163 % of control and 181 % of control; (endpoint: mean survival time, dose: 270.0 mg/kg/injection, schedule: Q01DX001 (ip), vehicle: alkali diluted with saline) 119 % of control; (endpoint: mean survival time, dose: 270.0 mg/kg/injection, schedule: Q01DX001 (ip), vehicle: carboxymethylcellulose (CMC)) 114 % of control. Further, the T/C runs as follows: (endpoint: mean survival time, dose: 300.0 mg/kg/injection, schedule: Q03HX024 (ip), vehicle: saline) 95 % of control and 108 % of control; (endpoint: mean survival time, dose: 320.0 mg/kg/injection, schedule: Q01DX009 (ip), vehicle: saline) 152 % of control and 166 % of control; (endpoint: mean survival time, dose: 600.0 mg/kg/injection, schedule: Q01DX001 (ip), vehicle: alkali diluted with saline) 120 % of control; (endpoint: mean survival time, dose: 600.0 mg/kg/injection, schedule: Q## X Z (ip), vehicle: carboxymethylcellulose (CMC)) 93 % of control; (endpoint: mean survival time, dose: 800.0 mg/kg/injection, schedule: Q01DX001 (ip), vehicle: saline) 103 % of control; (endpoint: mean survival time, dose: 800.0 mg/kg/injection, schedule: Q01DX009 (ip), vehicle: carboxymethylcellulose (CMC)) 122 % of control. Further, the T/C reads like this: (endpoint: mean survival time, dose: 1000.0 mg/kg/injection, schedule: Q## X Z (ip), vehicle: carboxymethylcellulose (CMC)) 121 % of control; (endpoint: mean survival time, dose: 1200.0 mg/kg/injection, schedule: Q01DX001 (ip), vehicle: saline) 107 % of control; (endpoint: mean survival time, dose: 1600.0 mg/kg/injection, schedule: Q01DX001 (ip), vehicle: saline) 114 % of control; (endpoint: median survival time, dose: 50.0 mg/kg/injection, schedule: Q03HX024 (ip), vehicle: other) 155 % of control; (endpoint: median survival time, dose: 100.0 mg/kg/injection, schedule: Q03HX024 (ip), vehicle: other) 155 % of control; (endpoint: median survival time, dose: 100.0 mg/kg/injection, schedule: Q03HX024 (sc), vehicle: other) 150 % of control. Moreover, the T/C (endpoint: median survival time, dose: 200.0 mg/kg/injection, schedule: Q03HX024 (ip), vehicle: other) is 155 % of control; the T/C (endpoint: median survival time, dose: 200.0 mg/kg/injection, schedule: Q03HX024 (sc), vehicle: other) is 155 % of control; the T/C (endpoint: median survival time, dose: 400.0 mg/kg/injection, schedule: Q03HX024 (ip), vehicle: other) is 111 % of control; the T/C (endpoint: median survival time, dose: 800.0 mg/kg/injection, schedule: Q01DX001 (ip), vehicle: other) is 111 % of control; the T/C (endpoint: median survival time, dose: 800.0 mg/kg/injection, schedule: Q01DX001 (sc), vehicle: other) was 111 % of control; the T/C (endpoint: median survival time, dose: 800.0 mg/kg/injection, schedule: Q04DX003 (ip), vehicle: other) is 122 % of control. Further, the T/C was 122 % of control (endpoint: median survival time, dose: 800.0 mg/kg/injection, schedule: Q04DX003 (sc), vehicle: other); 116 % of control (endpoint: median survival time, dose: 1600.0 mg/kg/injection, schedule: Q01DX001 (ip), vehicle: other); 116 % of control (endpoint: median survival time, dose: 1600.0 mg/kg/injection, schedule: Q01DX001 (sc), vehicle: other); 100 % of control (endpoint: median survival time, dose: 3200.0 mg/kg/injection, schedule: Q01DX009 (sc), vehicle: other); 150 % of control (endpoint: median survival time, dose: 3200.0 mg/kg/injection, schedule: Q04DX003 (sc), vehicle: other).

As for `CCN(CC)c1ccc(C(=C(c2ccc(N(CC)CC)cc2)c2ccc(N(CC)CC)cc2)c2ccc(N(CC)CC)cc2)cc1`, the T/C is 88 % of control (endpoint: mean survival time, dose: 50.0 mg/kg/injection, schedule: Q01DX009 (ip), vehicle: Klucel (hydroxypropylcellulose) (HPC)); 101 % of control (endpoint: mean survival time, dose: 100.0 mg/kg/injection, schedule: Q01DX009 (ip), vehicle: Klucel (hydroxypropylcellulose) (HPC)); 90 % of control (endpoint: mean survival time, dose: 100.0 mg/kg/injection, schedule: Q04DX003 (ip), vehicle: Klucel (hydroxypropylcellulose) (HPC)); 91 % of control (endpoint: mean survival time, dose: 200.0 mg/kg/injection, schedule: Q01DX009 (ip), vehicle: Klucel (hydroxypropylcellulose) (HPC)); 101 % of control (endpoint: mean survival time, dose: 200.0 mg/kg/injection, schedule: Q04DX003 (ip), vehicle: Klucel (hydroxypropylcellulose) (HPC)).

Take `CCCOCC(O)C[As](=O)(O)c1cccc(Cl)c1` (centres undefined): the T/C is 104 % of control (endpoint: mean survival time, dose: 6.25 mg/kg/injection, schedule: Q01DX001 (ip), vehicle: saline with Tween-80); 102 % of control (endpoint: mean survival time, dose: 12.5 mg/kg/injection, schedule: Q01DX001 (ip), vehicle: saline with Tween-80); 100 % of control (endpoint: mean survival time, dose: 25.0 mg/kg/injection, schedule: Q01DX001 (ip), vehicle: saline with Tween-80).

Regarding `Cc1cc(-c2ccccc2)c2c(C#N)cn(-c3cccc(Cl)c3)c2n1`, the T/C reads like this: (endpoint: mean survival time, dose: 100.0 mg/kg/injection, schedule: Q01DX001 (ip), vehicle: saline with Tween-80) 92 % of control; (endpoint: mean survival time, dose: 100.0 mg/kg/injection, schedule: Q01DX001 (ip), vehicle: saline) 87 % of control; (endpoint: mean survival time, dose: 200.0 mg/kg/injection, schedule: Q01DX001 (ip), vehicle: saline with Tween-80) 106 % of control; (endpoint: mean survival time, dose: 400.0 mg/kg/injection, schedule: Q01DX001 (ip), vehicle: saline with Tween-80) 92 % of control; (endpoint: mean survival time, dose: 400.0 mg/kg/injection, schedule: Q01DX001 (ip), vehicle: saline) 102 % of control.

As to `OC1(C#CC#CC2(O)CCCCC2)CCCCC1`, the T/C was 92 % of control (endpoint: mean survival time, dose: 100.0 mg/kg/injection, schedule: Q04DX003 (ip), vehicle: saline); 98 % of control (endpoint: mean survival time, dose: 200.0 mg/kg/injection, schedule: Q04DX003 (ip), vehicle: saline); 93 % of control (endpoint: mean survival time, dose: 400.0 mg/kg/injection, schedule: Q04DX003 (ip), vehicle: saline).
